Tests used:
Format in all cases: cell-based
MCF-7 cells [1] = test: Cytotoxicity of doxorubicin co-incubated with peptides (resazurin viability assay); conditions: MCF-7, DOX 1 μg/mL, 48 h, triplicate with n = 2
Procedure: (§1) Fluorescence microscopic images after 30 min incubation in HeLa (A) and MCF-7 (B) cells with 10 μM CF-labeled peptides N50-sC18* or NrTP-sC18* co-incubated with 10 μg/mL doxorubicin at 37 °C, respectively. Cells treated with DOX alone served as negative control; Green: CF-labeled peptide; blue: Hoechst 33342 nuclear stain; red: doxorubicin; scale bar is 10 µm. (C) Cells were incubated for 48 h with DOX (1 µg/mL), or solutions out of peptides (10 µM) and DOX (1 µg/mL), or peptide solutions (10 µM) alone. Untreated cells served as negative control, cells treated for 10 min with 70% ethanol as positive control. Experiments were conducted in triplicate with n = 2.
Herein, the drug alone (1 μg/mL) or in presence of 10 μM solutions of the peptides sC18*, N50-sC18* and NrTP-sC18*, respectively, were incubated for 48 h with MCF-7 cells.
A total volume of 200 μL of cells (HeLa 40’000, MCF-7 50’000 cells per well) were seeded in 96-well plates and grown to 70–80% confluency. Afterwards, they were incubated with peptide or doxorubicin solutions (diluted in serum-free medium) in a total volume of 100 μL. In the wells that served as positive and negative controls, the medium was replaced by fresh medium without FBS. The plates were incubated for 24 h or 48 h at 37 °C. Afterwards, the positive control was treated with 100 μL of 70% EtOH for 10 min, and then all cells were washed with PBS. Cells were covered with 100 μL of a 10% resazurin solution in medium without FBS and incubated for 1–2 h at 37 °C. Afterwards, fluorescence was quantified by using a Tecan infinite M200 plate reader (excitation: 550 nm, emission: 595 nm).
Experiments were done in triplicate.

HeLa cells = test: Doxorubicin uptake on co-administration, fluorescence microscopy; conditions: DOX 10 µg/mL, 30 min, 37 °C
Procedure: (§2) Doxorubicin is known to be fluorescent and this property was used to test if the peptides were able to enhance the intracellular uptake of the drug. Therefore, solutions out of DOX and the sequences N50-sC18* and NrTP-sC18* were incubated with HeLa and MCF-7 cells, respectively, and observed for red fluorescence afterwards (Figure 7A and 7B).
as §1, with “Figure 7 Uptake and delivery of DOX into HeLa and MCF-7 cells. Fluorescence” for “Fluorescence”
(§3) Cells were seeded in 350 μL medium in an 8-well ibidi plate (HeLa 45,000, MCF-7 70,000 cells per well) and were grown to 70–80% confluency. […] After adding 300 μL of fresh medium, pictures were taken using a fluorescence confocal microscope. […]

MCF-7 cells [2] = test: as above; conditions: MCF-7, DOX 10 µg/mL, 30 min, 37 °C
Procedure: as §2
as §1, with “Figure 7 Uptake and delivery of DOX into HeLa and MCF-7 cells. Fluorescence” for “Fluorescence”
as §3

COc1cccc2c1C(=O)c1c(O)c3c(c(O)c1C2=O)C[C@@](O)(C(=O)CO)C[C@@H]3O[C@H]1C[C@H](N)[C@H](O)[C@H](C)O1 [doxorubicin]
amount of viable cells, doxorubicin alone (MCF-7 cells [1]): about 60% | red fluorescence of DOX in cells, DOX only (HeLa cells): Minor red fluorescence | red fluorescence of DOX in cells, DOX only (MCF-7 cells [2]): Minor red fluorescence
